In patent US20050203135A1, “Antagonists for treatment of CD/11CD18 adhesion receptor mediated disorders” (Genentech, Inc., priority 1998, published 2005):

What was measured:
human LFA-1:ICAM-1 = biological target: T1, human LFA-1:ICAM-1 (Homo sapiens, UniProt P05107+P20701); experiment: human LFA-1:ICAM-1 receptor binding assay (format not stated)
T1 construct: containing the full-length cDNAs for the aL (CD11a) and b2 (CD18) subunits; made in house

[1] = tested on: HuT 78 cell adhesion to 5dICAM-Ig; experiment: Human T-cell adhesion assay (cell attachment assay); type: cell-based; details: HuT78
Method: The T-cell adhesion assay is performed using a human T-lymphoid cell line HuT 78. Goat anti-HuIgG(Fc) was diluted to 2 μg/ml in PBS and 96-well plates were coated with 50 μl/well @ 37° C. for 1 h. Plates were washed with PBS and blocked for 1 h @ room temperature with 1% BSA in PBS. 5 domain ICAM-Ig was diluted to 100 ng/ml in PBS and 50 μl/well was added to the plates O/N @ 4° C. HuT 78 cells were centrifuged at 100 g and the cell pellet was treated with 5 mM EDTA for 5′ at 37° C. in a 5% CO2 incubator. Cells were washed in 0.14M NaCl, 0.02M Hepes, 0.2% Glucose and 0.1 mM MnCl2 (assay buffer) and centrifuged. The cells were resuspended in assay buffer to 3.0×10^6 c/ml. Inhibitors were diluted in assay buffer to a 2× final concentration and pre-incubated with HuT 78 cells for 30′ at room temperature. 100 μl/well of cells and inhibitors were added to the plates and incubated at room temperature for 1 h. 100 μl/well PBS was added and the plates were sealed and centrifuged inverted at 100 g for 5′. Unattached cells were flicked out of the plate and excess PBS was blotted on a paper towel. […] The enzyme reaction was stopped with 90 μl/well 50 mM Glycine/5 mM EDTA and read on a platereader at […]. HUT 78 cell adhesion to 5dICAM-Ig is measured using the p-nitrophenyl n-acetyl-β-D-glucosaminide method of Landegren, U. (1984) J. Immunol. […]

T1 sequence (P20701 26-1170): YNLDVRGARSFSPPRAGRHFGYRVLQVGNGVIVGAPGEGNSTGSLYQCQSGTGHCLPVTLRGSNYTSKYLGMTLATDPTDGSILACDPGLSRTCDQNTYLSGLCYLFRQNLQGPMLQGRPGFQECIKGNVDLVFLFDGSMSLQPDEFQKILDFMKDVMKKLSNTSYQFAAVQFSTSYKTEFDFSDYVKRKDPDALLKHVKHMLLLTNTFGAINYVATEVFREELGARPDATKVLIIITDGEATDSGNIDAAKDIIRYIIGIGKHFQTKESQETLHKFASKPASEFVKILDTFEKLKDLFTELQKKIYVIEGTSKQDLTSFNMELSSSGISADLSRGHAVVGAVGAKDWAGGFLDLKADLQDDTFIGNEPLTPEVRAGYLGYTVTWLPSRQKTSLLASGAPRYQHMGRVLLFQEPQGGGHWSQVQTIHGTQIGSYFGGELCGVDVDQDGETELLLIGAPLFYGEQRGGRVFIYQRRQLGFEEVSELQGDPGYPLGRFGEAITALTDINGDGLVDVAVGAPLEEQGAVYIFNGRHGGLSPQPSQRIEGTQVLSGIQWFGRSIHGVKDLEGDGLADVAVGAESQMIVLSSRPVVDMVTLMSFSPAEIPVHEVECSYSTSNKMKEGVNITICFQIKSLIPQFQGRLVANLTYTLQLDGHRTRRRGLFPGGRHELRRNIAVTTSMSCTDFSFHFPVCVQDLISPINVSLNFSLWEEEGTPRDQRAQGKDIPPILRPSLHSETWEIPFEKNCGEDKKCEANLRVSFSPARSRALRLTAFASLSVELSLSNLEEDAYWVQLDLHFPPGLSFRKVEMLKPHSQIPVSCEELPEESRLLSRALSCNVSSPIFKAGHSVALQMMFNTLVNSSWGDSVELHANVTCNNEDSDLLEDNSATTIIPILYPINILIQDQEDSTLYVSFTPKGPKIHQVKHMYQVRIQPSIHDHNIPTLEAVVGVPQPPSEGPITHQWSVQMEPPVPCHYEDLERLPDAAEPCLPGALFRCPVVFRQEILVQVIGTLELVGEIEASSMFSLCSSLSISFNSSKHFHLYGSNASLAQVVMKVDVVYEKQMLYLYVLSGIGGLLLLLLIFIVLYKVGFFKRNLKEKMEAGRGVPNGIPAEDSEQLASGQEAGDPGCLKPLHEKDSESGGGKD
T1 sequence (P05107 23-769): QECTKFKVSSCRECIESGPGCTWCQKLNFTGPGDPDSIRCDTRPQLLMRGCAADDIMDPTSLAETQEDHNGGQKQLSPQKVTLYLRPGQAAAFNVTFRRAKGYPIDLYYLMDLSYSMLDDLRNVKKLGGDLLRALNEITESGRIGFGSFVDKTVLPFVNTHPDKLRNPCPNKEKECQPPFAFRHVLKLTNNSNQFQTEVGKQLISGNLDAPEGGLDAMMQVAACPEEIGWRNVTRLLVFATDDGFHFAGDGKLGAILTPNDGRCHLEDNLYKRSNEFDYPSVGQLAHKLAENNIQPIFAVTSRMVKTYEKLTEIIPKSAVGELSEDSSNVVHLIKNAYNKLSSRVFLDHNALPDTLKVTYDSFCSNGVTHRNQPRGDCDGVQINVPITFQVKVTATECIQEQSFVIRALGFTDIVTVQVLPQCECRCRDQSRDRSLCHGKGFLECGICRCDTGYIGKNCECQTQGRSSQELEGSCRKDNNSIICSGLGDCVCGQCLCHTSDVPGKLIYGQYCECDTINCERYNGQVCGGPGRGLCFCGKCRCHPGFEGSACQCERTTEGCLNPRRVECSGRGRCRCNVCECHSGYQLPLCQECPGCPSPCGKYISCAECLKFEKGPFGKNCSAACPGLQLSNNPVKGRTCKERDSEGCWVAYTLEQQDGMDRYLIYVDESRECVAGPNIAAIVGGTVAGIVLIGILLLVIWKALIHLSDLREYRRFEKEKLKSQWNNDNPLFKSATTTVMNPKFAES

IC50 (human LFA-1:ICAM-1): ~2 µM | IC50 [1]: ~10 µM
SMILES: O=C(N[C@@H](Cc1c[nH]c2ccccc12)C(=O)O)c1ccccc1Br [2-Bromobenzoyltryptophan]
